Values of other authors as cited in patent US8093286B2, “Methods for treatment with bucindolol based on genetic targeting” (The Regents of the University of Colorado, a body corporate, priority 2004, dated 2012).
Where a name gives a salt, the structure may show the parent alone.

Test system: patients with Class III/IV heart failure
Details: cited from earlier work

Question: Which results are given for `CC(C)(Cc1c[nH]c2ccccc12)NCC(O)COc1ccccc1C#N` (stereo not drawn) [bucindolol, (2-{2-hydroxy-3{{2-(3-indolyl)-1,1-dimethylethyl}amino}propoxy}-benzonitrile hydrochloride)]?
Answer: HF Hospitalization hazard ratio, bucindolol vs placebo (BEST entire cohort (n = 2708)): 0.78; 1045 Ev; Mortality + HF Hospitalization hazard ratio, bucindolol vs placebo (BEST entire cohort (n = 2708)): 0.81; 1421 Ev; reduction in all-cause mortality (BEST entire cohort): 10%; reduction in mortality or heart failure hospitalization (BEST entire cohort): 19%; reduction in event rate (death or heart failure hospitalization) (Class III patients, overall): 22%; increase in combined endpoint of death or heart failure hospitalization (Class IV patients, first 6 months of treatment): 1.7 fold
